Test results as given in publication PMC11110157, “Biosynthesis of the bacterial antibiotic 3,7-dihydroxytropolone through enzymatic salvaging of catabolic shunt products” (Chemical Science, 2024).

Legend:
[1] = target: T1, TrlD (Streptomyces cyaneofuscatus, UniProt A0A2S1JZG9); test: co-purification with bound flavin; format: binding; conditions: FAD preferred over FMN as flavin substrate
T1 construct: heterologously produced and purified; fraction co-purified with FAD
T1 sequence (A0A2S1JZG9 1-185): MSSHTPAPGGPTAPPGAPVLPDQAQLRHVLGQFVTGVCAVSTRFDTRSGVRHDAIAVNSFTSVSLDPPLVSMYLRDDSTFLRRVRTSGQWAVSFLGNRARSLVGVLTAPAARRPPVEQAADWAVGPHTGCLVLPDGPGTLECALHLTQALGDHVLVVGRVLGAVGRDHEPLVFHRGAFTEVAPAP

[2] = target: T2, TrlE (Streptomyces cyaneofuscatus, UniProt A0A2S1JZI9); test: X-ray crystallography ([…] A); format: binding; conditions: FAD non-covalently bound, IN conformation
T2 construct: heterologously produced and purified; crystal structure model residues 1-400
T2 sequence (A0A2S1JZI9 1-400): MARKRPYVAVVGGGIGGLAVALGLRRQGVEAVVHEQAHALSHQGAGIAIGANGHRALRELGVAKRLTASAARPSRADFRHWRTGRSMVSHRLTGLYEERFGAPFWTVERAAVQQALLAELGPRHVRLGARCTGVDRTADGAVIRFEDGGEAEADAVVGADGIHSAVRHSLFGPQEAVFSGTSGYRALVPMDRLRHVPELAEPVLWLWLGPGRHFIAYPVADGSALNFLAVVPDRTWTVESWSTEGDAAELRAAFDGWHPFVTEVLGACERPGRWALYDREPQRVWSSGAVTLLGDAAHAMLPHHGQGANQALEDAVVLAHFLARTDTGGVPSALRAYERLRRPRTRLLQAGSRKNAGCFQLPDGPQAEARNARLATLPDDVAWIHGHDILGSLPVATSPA

[3] = target: T1, TrlD; test: flavin reductase assay, cofactor specificity; format: biochemical; conditions: preferred over NADPH
[4] = target: T3, TrlE (Streptomyces cyaneofuscatus, UniProt A0A2S1JZI9, H213E); test: substrate consumption and product formation assay; format: biochemical; conditions: strongly reduced activity, minor product formation
T3 construct: heterologously produced and purified; crystal structure model residues 1-400

[5] = target: T4, TrlE (Streptomyces cyaneofuscatus, UniProt A0A2S1JZI9, Y217F); test: substrate consumption and product formation assay; format: biochemical; conditions: strongly reduced activity
T4 construct: heterologously produced and purified; crystal structure model residues 1-400

[6] = target: T5, TrlE (Streptomyces cyaneofuscatus, UniProt A0A2S1JZI9, H213Q); test: substrate consumption and product formation assay; format: biochemical; conditions: strongly reduced activity, minor product formation
T5 construct: heterologously produced and purified; crystal structure model residues 1-400

[7] = target: T2, TrlE; test: differential scanning fluorimetry; format: binding; conditions: substrate analogue; thermal shift

T5 sequence (A0A2S1JZI9 entry or part of it H213Q): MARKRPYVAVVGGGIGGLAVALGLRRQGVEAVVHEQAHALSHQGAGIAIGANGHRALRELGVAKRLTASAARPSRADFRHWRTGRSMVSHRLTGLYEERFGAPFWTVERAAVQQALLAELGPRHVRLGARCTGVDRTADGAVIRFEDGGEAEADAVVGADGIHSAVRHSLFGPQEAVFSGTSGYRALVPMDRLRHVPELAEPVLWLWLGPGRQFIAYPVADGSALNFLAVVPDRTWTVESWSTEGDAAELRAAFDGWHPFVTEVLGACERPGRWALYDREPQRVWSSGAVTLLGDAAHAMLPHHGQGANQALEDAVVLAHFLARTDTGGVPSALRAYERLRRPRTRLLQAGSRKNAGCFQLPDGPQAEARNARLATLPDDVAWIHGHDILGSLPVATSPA
T3 sequence (A0A2S1JZI9 entry or part of it H213E): as the sequence (A0A2S1JZI9 entry or part of it H213Q) above, with Q213E counted along it
T4 sequence (A0A2S1JZI9 entry or part of it Y217F): as the sequence (A0A2S1JZI9 entry or part of it H213Q) above, with Q213H, Y217F counted along it

SMILES: Cc1cc2nc3c(=O)[nH]c(=O)nc-3n(C[C@H](O)[C@H](O)[C@H](O)COP(=O)(O)OP(=O)(O)OC[C@H]3O[C@@H](n4cnc5c(N)ncnc54)[C@H](O)[C@@H]3O)c2cc1C [FAD]
- co-purification with bound flavin [1]: a fraction of TrlD was co-purified with bound FAD
- X-ray crystallography (2.5 A) [2]: The non-covalently bound FAD observed in this structure is present in the “IN” conformation

SMILES: NC(=O)C1=CN([C@@H]2O[C@H](COP(=O)(O)OP(=O)(O)OC[C@H]3O[C@@H](n4cnc5c(N)ncnc54)[C@H](O)[C@@H]3O)[C@@H](O)[C@H]2O)C=CC1 [NADH]
- flavin reductase assay, cofactor specificity [3]: TrlD preferred FAD and NADH over FMN and NADPH, respectively

SMILES: O=C(O)C1=C(O)CC=CC=C1 [compound 7, dihydrotropone-2-carboxylate]
- substrate consumption and product formation assay [4]: For both H213E and H213Q variants, minor product formation was still observed
- substrate consumption and product formation assay [5]: the other variants showed strongly reduced catalytic activity, with slowed substrate consumption and product formation
- substrate consumption and product formation assay [6]: For both H213E and H213Q variants, minor product formation was still observed

SMILES: O=C(O)c1ccccc1O [salicylate]
- differential scanning fluorimetry [7]: binding of these compounds to TrlE was confirmed by differential scanning fluorimetry (DSF)

SMILES: O=C(O)c1cccccc1=O [tropone-2-carboxylate]
- differential scanning fluorimetry [7]: binding of these compounds to TrlE was confirmed by differential scanning fluorimetry (DSF)
